Data taken from US10897891B2, “Compositions and methods for prolonged cell storage” (Board of Regents, The University of Texas System, priority 2015, dated 2021).

Tested on: platelets
Experiment: Microscopic platelet degranulation at 5° C. with cryoprotective agents
Format: cell-based, human
Design: key to effect on microscopic degranulation, 0.75% / effect on microscopic degranulation, 0.38% / effect on microscopic degranulation, 3% / effect on microscopic degranulation, 1.5% / effect of cryoprotective on platelet degranulation, 3% / effect of cryoprotective on platelet degranulation, 1.5% / effect of cryoprotective on platelet degranulation, 0.75% / effect of cryoprotective on platelet degranulation, 0.38%: none: None = no effect detected ~90% complete degranulation; fair: Fair = 25 to 50% of platelets are non-degranulated; good: Good = >80 are non-degranulated
Settings: for effect of cryoprotective on platelet degranulation, 0.38% / effect on microscopic degranulation, 0.38%: 0.38% final in ACD-Platelet mixture; for effect of cryoprotective on platelet degranulation, 0.75% / effect on microscopic degranulation, 0.75%: 0.75% final in ACD-Platelet mixture; for effect of cryoprotective on platelet degranulation, 1.5% / effect on microscopic degranulation, 1.5%: 1.5% final in ACD-Platelet mixture; for effect of cryoprotective on platelet degranulation, 3% / effect on microscopic degranulation, 3%: 3% final in ACD-Platelet mixture; for platelet colour / granule preservation: 5° C.
Protocol: Platelet aggregation using epinephrine. Ten ml of 24 hr old platelet residual was derived from one platelet unit and split into two 5 ml aliquots in 50 ml tubes. One sample received 10% phosphate buffered saline (PBS) and one 10% PBS containing PEG400 such that the final PEG concentration was 2%. These samples were placed on a flat-bed rotator with a 1 inch stroke, at 70 cycles per min, at 5° C. for 7 days. 100 ul of these platelet suspensions were added to wells of a 96 well U bottom plate. Epinephrine 0.1 mg/ml (Pharmaceutical NDC 0409-4921-34-44-048-DK) was diluted with PBS and 100 ul was added to test wells to give a finial concentration of 10 mcg/ml. The plate was rotated overnight to allow aggregation. The extent of aggregation was read using an ELISA plate reader (Molecular Devises, Vmax) at 690 nm wavelength. Platelets, with and without PEG, were also aggregated by the addition of 10% H2O2. Hydrogen peroxide is not an agonist for the platelet receptor; however exposure to hydrogen peroxide mimics the platelet storage lesion though membrane ageing. In this study, the inventors tested 2 day old residual platelets form one donor unit by splitting the material in to a 24 well cluster plate. Control platelets had 10% PBS added and were compared to test compositions with the addition of 10% volume PBS plus 2% PEG-400. 10% v/v (Hydrogen peroxide 3%) was then added to all wells simultaneously using a multichannel pipette. Wells were photographed following 1 hr room temperature incubation (see FIGS. 2A-B and FIG. 3). Table 3 presents additional cryoprotective agents scored for the effect on microscopic degranulation (20× high contrast lighting as above).
The following methods were used: “Fresh” in-date 2 day old blood bank O pos random donor platelets were recovered from segments and held in a 50 cc tub with rotation 22° C., 70 cycles/min 1 inch stroke) for 30 min. Glycerol (Fisher tissue grade product) was obtained from virology diluted to 50% in sterile saline and filter sterilized. 12 g glycerol were added to 12 ml sterile saline (BioMeriux—vitek saline) and mixed. This mixture was filter sterilized using a 0.45 um filter (CELLULOSE ACETATE). Dilutions were made of the above saline to a concentration 50%, 25%, 12%, 6%, […]. 200 ul of platelets were withdrawn slowly (8 sec) and add slowly to 7 sterile 2 ml microcentrifuge tubes. 200 ul of 50%, 25%, 12% 6%, and 3% glycerol/saline and two controls using 200 ul saline, were then added to the platelets with slow mixing. Thus the final glycerol concentrations=25, 12, 6, 3, and 1.5. These aliquots were allowed to rotate at room temp as above for 5 min and then placed on a rotator at 70 cycles/min with a 1 inch stroke at 5° C. (temp previously equilibrated and documented at 5° C.)
At day 3, dark dense platelets were observed, indicating degranulation in the control groups (in both control groups A & B). A variation in platelet size was observed: small and dense indicating degranulation, vs. normal morphology pale plump platelets without the dense small degranulated appearance. Degranulation in response to cold storage is associated with the first step of the platelet activation GP-1 signal resulting in α-granule degranulation and massive extracellular release of vWF. (Suhasini el al., 2010). Table 4 presents a summary of additional cryoprotective agents scored for the effect on microscopic degranulation (20× high contrast lighting as above).

[1] = 6% final in ACD-Platelet mixture, 10 days at 5° C.

Row | Compound | effect of cryoprotective on platelet degranulation, 0.38% (6 days at 5° C.) | effect on microscopic degranulation, 0.38% (6 days at 5° C.) | effect of cryoprotective on platelet degranulation, 0.75% (6 days at 5° C.) | effect on microscopic degranulation, 0.75% (6 days at 5° C.) | effect of cryoprotective on platelet degranulation, 1.5% (6 days at 5° C.) | effect on microscopic degranulation, 1.5% (6 days at 5° C.) | effect of cryoprotective on platelet degranulation, 3% (6 days at 5° C.) | effect on microscopic degranulation, 3% (6 days at 5° C.) | 5° C. induced degranulation (3% and 6% glycerol, at 3, 6, and 10 days) | effect of cryoprotective on platelet degranulation, 3% (10 days at 5° C.) | effect on microscopic degranulation, 3% (10 days at 5° C.) | platelet colour / granule preservation (3% glycerol or 6% glycerol, day 10) | platelet colour / granule preservation (3% glycerol, day 3) | platelet colour / granule preservation (3% glycerol, day 6) | effect of cryoprotective on platelet degranulation, 6% [1] | effect on microscopic degranulation, 6% [1]
1 | glycerol propoxylate | none | none | fair (Fair = 25 to 50% of platelets are non-degranulated) | fair (Fair = 25 to 50% of platelets are non-degranulated) | fair (Fair = 25 to 50% of platelets are non-degranulated) | fair (Fair = 25 to 50% of platelets are non-degranulated) | none | none | – | – | – | – | – | – | – | –
2 | OCC(O)CO [Glycerol] | – | – | – | – | – | – | – | – | prevented 5 °C induced degranulation | fair (Fair = 25 to 50% of platelets are non-degranulated) | fair (Fair = 25 to 50% of platelets are non-degranulated) | light color of platelets was observed, indicating granule preservation | light color of platelets was observed, indicating granule preservation | light color of platelets was observed, indicating granule preservation | good (Good = >80 are non-degranulated) | good (Good = >80 are non-degranulated)
3 | pentaerythritol propoxylate | fair (Fair = 25 to 50% of platelets are non-degranulated) | fair (Fair = 25 to 50% of platelets are non-degranulated) | none | none | none | none | none | none | – | – | – | – | – | – | – | –
4 | Methoxy PEG | none | none | none | none | good (Good = >80 are non-degranulated) | good (Good = >80 are non-degranulated) | good (Good = >80 are non-degranulated) | good (Good = >80 are non-degranulated) | – | – | – | – | – | – | – | –
5 | pentaerythritol ethoxylate | none | none | none | none | none | none | none | none | – | – | – | – | – | – | – | –
6 | trimethylolpropane ethoxylate [Trimethylopropane ethoxylate] | none | none | none | none | none | none | none | none | – | – | – | – | – | – | – | –
